Experimental data taken from patent US20170058314A1, “NOVEL METHODOLOGY FOR IDENTIFYING ANTI-PERSISTER ACTIVITY AND ANTIMICROBIAL SUSCEPTIBILITY FOR BORRELIA BURGDORFERI AND OTHER BACTERIA” (priority 2014, published 2017).
Converted amounts (≈) assume the structure as drawn.

What was measured:
[1] = tested on: round body form of B. burgdorferi; test: SYBR Green I/PI assay on amoxicillin-induced round body form; details: for Ratios of green/red fluorescence, Primary screening / Ratios of green/red fluorescence, Rescreening (first column) / Ratios of green/red fluorescence, Rescreening (second column): round body form, 50 μM; for viability at 50 µM: Borreliella burgdorferi, 168 h, read-out: Residual viable cells (SYBR Green I/PI assay)
[2] = tested on: round body form of B. burgdorferi; details: 50 µM
[3] = tested on: stationary phase B. burgdorferi; test: Subculture test of drug-treated stationary phase B. burgdorferi; type: cell-based, Borrelia burgdorferi; details: for G/R ratio immediately after treatment / G/R ratio after 7 day subculture / G/R ratio after 15 day subculture / Spirochetes after 7 day subculture (microscope counting) / Spirochetes after 15 day subculture (microscope counting): 10 μg/mL; for G/R ratio immediately after treatment: 7 days; for G/R ratio after 7 day subculture / G/R ratio after 15 day subculture / Spirochetes after 7 day subculture (microscope counting) / Spirochetes after 15 day subculture (microscope counting): 7 days treatment, then subculture; for viability at 10 µg/mL: Borreliella burgdorferi, 168 h, read-out: Residual viable cells (epifluorescence microscope counting)
Experimental: Seven-day-old B. burgdorferi culture (1×10^7 spirochetes/mL) (500 μL) was treated with drugs or drug combinations in Eppendorf tubes. After incubation at 33° C. for 7 days without shaking, the cells were collected by centrifugation and rinsed with 1 mL fresh BSK-H medium followed by resuspension in 500 μL fresh BSK-H medium without antibiotics. Then 50 μL of cell suspension was transferred to 1 mL fresh BSK-H medium for subculture at 33° C. for 2 weeks. Cell proliferation was assessed using SYBR Green I/PI assay and bacterial counting chamber (Hausser Scientific Partnership) by microscopy as described above.

[4] = tested on: B. burgdorferi log and stationary phase cultures; test: epi-fluorescence microscope counting after antibiotic exposure (persister frequency, planktonic forms); type: cell-based, Borrelia burgdorferi
Experimental: Specimens were examined on a Nikon Eclipse E800 microscope equipped with differential interference contrast (DIC) and epi-fluorescence illumination, and recorded with a Spot slider color camera. Cell proliferation assays were performed by direct counting using a bacterial counting chamber (Hausser Scientific Partnership) and DIC microscopy. SYBR Green I/PI assay was performed to assess the viability of B. burgdorferi. The ratio of live (green) and dead (red) B. burgdorferi was calculated by counting these cells using a bacterial counting chamber and epi-fluorescence microscopy. The three representative images of every sample were captured for quantitative analysis. Image Pro-Plus software was applied for measuring the biomass (fluorescence intensity) of different forms (spirochetes, round body, and microcolony) of B. burgdorferi as previously described (Shopov and Williams, 2000).
To qualitatively determine the effect of antibiotics, 10 μL of each compound from the pre-diluted plate or pre-diluted stock was added to stationary phase B. burgdorferi culture in the 96-well plate. The final volume per well was adjusted to 100 μL at a concentration of 10 μg/mL for each antibiotic. Plates were sealed and placed in a 33° C. incubator for 7 days. The SYBR Green I/PI viability assay was used to assess the live and dead cells after antibiotic exposure as described (Feng, Wang, Shi, et al., 2014). Briefly, 10 μL of SYBR Green I (10,000×stock, Invitrogen) was mixed with 30 μL propidium iodide (PI, 20 mM) into 1.0 mL of sterile dH2O. Then, 10 μL of staining mixture was added to each well and mixed thoroughly. The plates were incubated at room temperature in the dark for 15 minutes followed by plate reading at excitation wavelength at 485 nm and the fluorescence intensity at 535 nm (green emission) and 635 nm (red emission) in microplate reader (HTS 7000 plus Bio Assay Reader, PerkinElmer Inc., USA). With least-square fitting analysis, the regression equation and regression curve of the relationship between percentage of live bacteria and green/red fluorescence ratios was obtained. The regression equation was used to calculate the percentage of live cells in each well of the 96-well plate.
Therefore, the frequency of B. burgdorferi persisters in log phase and stationary phase cultures was assessed using the SYBR Green I/PI viability assay after exposure of the cultures to antimicrobials. E. coli culture was used as a control after exposure to antibiotics to validate the SYBR Green I/PI viability assay for persister frequency assessment.

[5] = tested on: stationary phase B. burgdorferi persisters (strain B31); test: epifluorescence microscope counting after SYBR Green I/PI staining, FDA drug screen; details: for viability at 50 µM: Borreliella burgdorferi, 168 h, read-out: Residual viable cells (epifluorescence microscope counting)
[6] = tested on: log phase E. coli culture; test: E. coli control, persister frequency by standard plate colony count assay; type: cell-based, Escherichia coli; details: three hour log phase E. coli, 50 μg/mL amoxicillin for 3 hours
[7] = tested on: log phase and stationary phase B. burgdorferi culture; test: Antibiotic exposure assay, SYBR Green I/PI (drugs alone and combinations); details: for viability at 10 µg/mL: Borreliella burgdorferi, 168 h, read-out: Live Cell % (residual viable B. burgdorferi), ten-day-old stationary phase culture enriched with micro-colonies, 10 μg/mL each drug, 7 days
Procedure, shortened: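 Stationary-phase or round-body B. burgdorferi exposed 7 days at 33 °C to drugs alone or combined at 10 μg/mL each (single-compound screen: 50 μM final). Viability by SYBR Green I/PI, ex 485, em 535/635 nm; percent live from regression of green/red ratio, corrected by direct microscopy counting.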

[8] = tested on: B. burgdorferi (growing, strain B31); test: MIC determination, standard microdilution method; type: cell-based, Borrelia burgdorferi; details: for MIC: Borreliella burgdorferi, growing B. burgdorferi, read-out: MIC
[9] = tested on: stationary phase B. burgdorferi persisters (strain B31); test: NCI compound library rescreen, epifluorescence microscope counting; details: Borreliella burgdorferi, 168 h; for viability at 20 µM: read-out: Residual viable cells (%) 20 μM (epifluorescence microscope counting)
[10] = tested on: log phase E. coli culture; test: E. coli control, persister frequency by microscope counting after SYBR Green I/PI staining; type: cell-based, Escherichia coli; details: three hour log phase E. coli, 50 μg/mL amoxicillin for 3 hours
[11] = tested on: stationary phase B. burgdorferi persisters (strain B31); test: SYBR Green I/PI viability assay (plate reader), FDA-approved drug library screen; details: for Ratio of Green/Red fluorescence, Primary screening / Ratio of Green/Red fluorescence, Rescreening (first column) / Ratio of Green/Red fluorescence, Rescreening (second column): 7 days, stationary phase; for viability at 50 µM: Borreliella burgdorferi, 168 h, read-out: Residual viable cells (regression equation, SYBR Green I/PI assay)
[12] = tested on: stationary phase B. burgdorferi persisters (strain B31); test: NCI compound library screen, SYBR Green I/PI assay (plate reader); details: for viability at 20 µM / viability at 50 µM: Borreliella burgdorferi, 168 h; for viability at 20 µM: read-out: Residual viable cells (%) 20 μM (SYBR Green I/PI assay), 20 μM, seven day old stationary phase, 7 days
[13] = tested on: round body form of B. burgdorferi; test: Subculture test of drug-treated round body form
Experimental: For induction of round body form of B. burgdorferi, B. burgdorferi spirochetes (1×10^5 spirochetes/mL) were cultured in BKS-H medium for 6 days without shaking. After the 6-day incubation, amoxicillin at a final concentration of 50 μg/mL was added to the culture for round body form induction. After 72 h induction at 33° C., the round body forms of B. burgdorferi were examined by the microscopy. The round body cells (100 μL) were transferred to 96-well tissue culture microplates for evaluation of the effects of antibiotic treatment.

[14] = tested on: B. burgdorferi (growing, strain B31); details: actively growing B. burgdorferi; Feng, Wang, Shi, et al., 2014; cited from earlier work
S. aureus = details: Zhu et al., 2005; cited from earlier work
[15] = read-out: Activity against persisters (residual viable cell percentage)
[16] = read-out: Residual viable cells (%) 50 μM (epifluorescence microscope counting)
[17] = read-out: Residual viable cells (epifluorescence microscope counting)
[18] = 10 μg/mL, 7 days treatment, then subculture
[19] = 10 μg/mL drugs or combinations, 7 days
[20] = 50 μM, 7-day old stationary phase cells treated for 7 days

| SMILES | Ratios of green/red fluorescence, Primary screening ([1]; 7 days) | Ratios of green/red fluorescence, Rescreening (first column) ([1]; 7 days) | Ratios of green/red fluorescence, Rescreening (second column) ([1]; 7 days) | Residual viable cells (SYBR Green I/PI assay) [2] | viability at 50 µM [1] | G/R ratio immediately after treatment [3] | G/R ratio after 7 day subculture [3] | G/R ratio after 15 day subculture [3] | Spirochetes after 7 day subculture (microscope counting) [3] | Spirochetes after 15 day subculture (microscope counting) [3] | viability at 10 µg/mL [3] | viability at 50 µM [5] | viability at 10 µg/mL [7] | MIC [8] | viability at 50 µM [9, 15] | viability at 20 µM [9] | viability at 50 µM [9, 17] | Ratio of Green/Red fluorescence, Primary screening ([11]; 50 μM) | Ratio of Green/Red fluorescence, Rescreening (first column) ([11]; 50 μM) | Ratio of Green/Red fluorescence, Rescreening (second column) ([11]; 50 μM) | further results |
| --- | --- | --- | --- | --- | --- | --- | --- | --- | --- | --- | --- | --- | --- | --- | --- | --- | --- | --- | --- | --- | --- |
| N[C@@H](C(=O)N[C@@H]1C(=O)N2C(C(=O)O)=C(Cl)CC[C@H]12)c1ccccc1 [Loracarbef] | 6.35 | 6.25 | 6.24 | 33% | – | – | – | – | – | – | – | – | – | – | – | – | – | – | – | – | – |
| CC1(C)S[C@@H]2[C@H](NC(=O)[C@H](N)c3ccc(O)cc3)C(=O)N2[C@H]1C(=O)O [Amoxicillin] | 6.53 | 6.59 | 6.52 | – | 46% | 7.16 | 6.32 | 7.23 | 1 × 10^6 | 6 × 10^6 | 80% | 76% | 75% | ≤ 0.25 µg/mL | 77% | 77% | 77% | 7.98 | 7.86 | 7.82 | Spirochetes after 15 day subculture (microscope counting) ([3]; listed as amoxicillin): ~5×10^6; persister frequency (percentage of live cells after antibiotic treatment, in brackets) ([4]; 3-day log phase culture): (9.6%); persister frequency (in brackets) ([4]; 7-day stationary phase culture): (25%); persister frequency (in brackets) ([4]; 10-day stationary phase culture): (~27%); E. coli control Persister frequency (standard plate colony count assay) [6]: 0.9%; E. coli control Persister frequency (standard plate colony count assay) ([6]; listed as amoxicillin): 0.9%; viability at 50 µM [9, 16]: 77%; E. coli control Persister frequency (epi-fluorescence microscope counting after SYBR Green I/PI staining) [10]: 4.4%; E. coli control Persister frequency (epi-fluorescence microscope counting after SYBR Green I/PI staining) ([10]; listed as amoxicillin): 4.4%; viability at 50 µM [11]: 76%; Residual viable cells (SYBR Green I/PI assay) ([12]; 50 μM, seven day old stationary phase culture, 7 days): 71%; viability at 20 µM [12]: 77% |
| CCCCCCCCCC(=O)N[C@@H](Cc1c[nH]c2ccccc12)C(=O)N[C@H](CC(N)=O)C(=O)N[C@@H](CC(=O)O)C(=O)N[C@@H]1C(=O)NCC(=O)N[C@@H](CCCN)C(=O)N[C@@H](CC(=O)O)C(=O)N[C@H](C)C(=O)N[C@@H](CC(=O)O)C(=O)NCC(=O)N[C@H](CO)C(=O)N[C@@H]([C@H](C)CC(=O)O)C(=O)N[C@@H](CC(=O)c2ccccc2N)C(=O)O[C@@H]1C [Daptomycin] | 5.90 | 6.09 | 5.93 | – | 19% | 5.85 | 7.01 | 7.11 | 3.1 × 10^6 | 5 × 10^6 | 55% | 35% | 48% | 12.5 to 25 µg/mL (≈ 7.71 to 15.4 µM) | 18% | 25% | 18% | 6.10 | 6.20 | 6.09 | Spirochetes number After 10 day subculture [13, 18]: 5 × 10^5; Spirochetes number After 20 day subculture [13, 18]: 5 × 10^6; viability at 10 µg/mL ([13]; Borreliella burgdorferi, 168 h, read-out: Residual viable cells): 18%; Live cell %, round body form [1, 19]: 17%; MIC (previous study) [14]: 12.5 to 25 µg/mL; Live cell %, ten day old stationary phase culture (in brackets) [7, 19]: 48%; Live Cell % (residual viable B. burgdorferi) ([7]; Borrelia burgdorferi, 7 days, 10 μg/mL): 52%; viability at 50 µM [9, 16]: 18%; viability at 50 µM [11]: 28%; viability at 20 µM [12]: 32%; viability at 50 µM ([12]; read-out: Residual viable cells (SYBR Green I/PI assay), 50 μM, seven day old stationary phase culture, 7 days): 23% |
| COc1cccc2c1C(=O)c1c(O)c3c(c(O)c1C2=O)C[C@@](O)(C(=O)CO)C[C@@H]3O[C@H]1C[C@H](N)[C@H](O)[C@H](C)O1 [doxorubicin] | – | – | – | – | – | – | – | – | – | – | – | – | – | – | – | – | – | – | – | – | MIC against S. aureus (S. aureus): 0.12 to 0.5 µg/mL; bactericidal activity by microscopic counting ([5]; FDA drug screen): no bactericidal activity; activity against stationary phase B. burgdorferi (words; SYBR Green I/PI assay) ([11]; FDA drug screen): very high activity |
| COc1cccc2c1C(=O)c1c(O)c3c(c(O)c1C2=O)C[C@@](O)(C(C)=O)C[C@@H]3OC1CC(N)C(O)C(C)O1.Cl (some centres unmarked) [NSC82151, Daunorubicin hydrochloride] | – | – | – | – | – | – | – | – | – | – | – | – | – | ≤ 0.35 µg/mL | 10% | – | 10% | – | – | – | MIC against S. aureus (S. aureus): 8 to 32 µg/mL; viability at 50 µM ([12]; read-out: Residual viable cells (SYBR Green I/PI assay)): 0% |
| CO[C@@H]1[C@@H](O[C@@H]2O[C@H](C)[C@@H](O[C@H]3C[C@@](C)(O)[C@@H](OC(=O)CC(C)C)[C@H](C)O3)[C@H](N(C)C)[C@H]2O)[C@@H](CC=O)C[C@@H](C)C(=O)/C=C/[C@@H]2O[C@@H]2C[C@@H](C)OC(=O)C[C@H]1OC(C)=O [Carbomycin] | – | – | – | 43% | – | – | – | – | – | – | – | – | – | – | – | – | – | 6.37 | 6.81 | 6.32 | Residual viable cells (epifluorescence microscope counting) [5, 20]: 41%; sensitivity of log phase / multiplying B. burgdorferi (words, FIG. 12) ([8]; MIC test): very sensitive; Residual viable cells (regression equation, SYBR Green I/PI assay) [11, 20]: 37% |
